Results from patent US8802664B2 (Bioproject, priority 2010, dated 2014).

Columns and labels:
human H4 receptor = target: T1, human H4 receptor (Homo sapiens, UniProt Q9H3N8); assay: [3H]Histamine binding on membranes of CHO cells stably expressing human H4 receptor
T1 construct: expressed in transfected cells
Outline: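 Nonspecific signal was taken as that remaining with 10 μM JNJ 7777120 present. Assays contained 20 μg CHO-derived hH4 membrane protein in Tris/HCl–EDTA buffer (pH 7.4) and were terminated on polyethyleneimine-soaked filters, with bound tritium quantified by scintillation.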

T1 sequence (Q9H3N8 whole entry): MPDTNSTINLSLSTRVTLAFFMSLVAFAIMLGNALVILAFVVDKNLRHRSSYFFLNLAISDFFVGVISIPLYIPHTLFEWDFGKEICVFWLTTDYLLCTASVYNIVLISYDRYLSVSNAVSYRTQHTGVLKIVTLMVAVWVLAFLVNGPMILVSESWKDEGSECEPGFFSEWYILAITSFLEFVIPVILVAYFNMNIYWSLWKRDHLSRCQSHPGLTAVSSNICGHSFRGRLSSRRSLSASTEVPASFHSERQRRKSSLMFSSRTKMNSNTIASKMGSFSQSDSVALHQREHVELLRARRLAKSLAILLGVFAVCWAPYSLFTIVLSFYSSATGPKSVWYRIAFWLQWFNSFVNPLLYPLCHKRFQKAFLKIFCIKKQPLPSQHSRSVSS

| Compound | melting point [°C] | Ki or IC50 activity class (human H4 receptor) [nM] |
| --- | --- | --- |
| CN1CCC(OC(c2nc3ccccc3[nH]2)c2ccccc2Br)CC1 (centres unmarked) [Example 262, 2-[(2-bromophenyl)(1-methylpiperidin-4-yloxy)methyl]-1H-benzimidazole] | 213 | < 300 |
| CN1CCC(OC(c2ccc3c(c2)OCCO3)c2nc3ccccc3[nH]2)CC1 (centres unmarked) [Example 300, 2-[(2,3-dihydrobenzo[1,4]dioxin-6-yl)(1-methylpiperidin-4-yloxy)methyl]-1H-benzimidazole] | 203 | < 300 |
| CN1CCC(NC(c2cccc(OC3CCCCO3)c2)c2nc3ccccc3[nH]2)CC1 (centres unmarked) [Example 120, {(1H-benzimidazol-2-yl)[3-(tetrahydropyran-2-yloxy)phenyl]methyl}(1-methylpiperidin-4-yl)amine] | 97 | < 1000 |
| CN1CCC(OC(c2ccccc2)c2nc3cccc(O)c3[nH]2)CC1 (centres unmarked) [Example 210, 2-[(1-methylpiperidin-4-yloxy)phenylmethyl]-3H-benzimidazol-4-ol] | 170.5 | < 1000 |
| CN1CCC(OC(c2cccc(SCCNC(=N)NC(=O)OC(C)(C)C)c2)c2nc3ccccc3s2)CC1 (centres unmarked) [Example 304, N-tert-butoxycarbonyl-N′-(2-{3-[(benzothiazol-2-yl)(1-methylpiperidin-4-yloxy)methyl]phenylsulfanyl}ethyl)guanidine] | 110 | < 30 |
| CN1CCC(OC(c2nc3ccccc3[nH]2)c2cccc(I)c2F)CC1 (centres unmarked) [Example 334, 2-[(2-fluoro-3-iodophenyl)(1-methylpiperidin-4-yloxy)methyl]-1H-benzimidazole] | 125 | < 300 |
| CN1CCC(OC(c2cccc(-c3cnc(O)nc3)c2)c2nc3ccccc3s2)CC1 (centres unmarked) [Example 214, 5-{3-[benzothiazol-2-yl(1-methylpiperidin-4-yloxy)methyl]phenyl}pyrimidin-2-ol] | 170 | < 300 |
| C=Cc1cccc(C(OC2CCN(C)CC2)c2nc3ccccc3s2)c1 (centres unmarked) [Example 218, 2-[(1-methylpiperidin-4-yloxy)(3-vinyl-phenyl)methyl]benzothiazole] | 165 | < 30 |
| CN1CCC(OC(c2ccccc2)c2nc3ccccc3[nH]2)CC1 (centres unmarked) [Example 30, 2-[(1-methylpiperidin-4-yloxy)phenylmethyl]-1H-benzimidazole] | 110 | < 300 |
| CN1CCC(OC(c2cccc(SCCNC(N)=O)c2)c2nc3ccccc3[nH]2)CC1 (centres unmarked) [Example 298, (2-{3-[(1H-benzimidazol-2-yl)(1-methylpiperidin-4-yloxy)methyl]phenylsulfanyl}ethyl)urea] | 136 | < 1000 |
| CCSc1ccc(O)c(C(OC2CCN(C)CC2)c2nc3ccccc3[nH]2)c1 (centres unmarked) [Example 588] | 116 | < 30 |
| COc1cccc(C(OC2CCN(C)CC2)c2nc3ccccc3[nH]2)c1 (centres unmarked) [Example 542] | 83 | < 30 |
| CN1CCC(NC(c2cccc(OCCCC(F)(F)F)c2)c2nc3ccccc3[nH]2)CC1 (centres unmarked) [Example 175, {(1H-benzimidazol-2-yl)[3-(4,4,4-trifluoro-butoxy)phenyl]methyl}(1-methylpiperidin-4-yl)amine] | 94 | < 300 |
| CN1CCC(NC(c2cccc([N+](=O)[O-])c2)c2nc3ccccc3[nH]2)CC1 (centres unmarked) [Example 131, [(1H-benzimidazol-2-yl)(3-nitrophenyl)methyl](1-methylpiperidin-4-yl)amine] | 254 | < 300 |
| CN1CCC(OC(c2nc3ccccc3[nH]2)c2cccc(-c3ccccc3)c2O)CC1 (centres unmarked) [Example 615] | 129 | < 300 |
| CN1CCC(OC(c2nc3ccccc3[nH]2)c2cc(F)c(F)cc2O)CC1 (centres unmarked) [Example 583] | 198 | < 300 |
| CC(C)Oc1cccc(C(NC2CCN(C)CC2)c2nc3ccccc3[nH]2)c1 (centres unmarked) [Example 77, [(1H-benzimidazol-2-yl)(3-isopropoxyphenyl)methyl](1-methylpiperidin-4-yl)amine] | 75 | < 300 |
| Cc1ccc(C(NC2CCN(C)CC2)c2nc3ccccc3[nH]2)cc1 (centres unmarked) [Example 273, [(1H-benzimidazol-2-yl)-p-tolyl-methyl](1-methylpiperidin-4-yl)amine] | 183 | < 1000 |
| Cc1cc(F)c(C(OC2CCN(C)CC2)c2nc3ccccc3[nH]2)c(F)c1 (centres unmarked) [Example 523, 2-[(2,6-difluoro-4-methylphenyl)(1-methylpiperidin-4-yloxy)methyl]-1H-benzimidazole] | 211 | < 30 |
| CN1CCC(OC(c2nc3ccccc3s2)c2cccc3ccccc23)CC1 (centres unmarked) [Example 17, 2-[(1-methylpiperidin-4-yloxy)naphthalen-1-ylmethyl]benzothiazole] | 106.5 | < 1000 |

| Compound | melting point [°C] | Ki or IC50 activity class (human H4 receptor) [nM] |
| --- | --- | --- |
| CN1CCC(NC(c2cccc(OC(F)(F)F)c2)c2nc3ccccc3[nH]2)CC1 (centres unmarked) [Example 60, [(1H-benzimidazol-2-yl)(3-trifluoromethoxyphenyl)methyl](1-methylpiperidin-4-yl)amine] | 82 | < 30 |
| CN1CCC(OC(c2nc3ccccc3[nH]2)c2cccc3cc[nH]c23)CC1 (centres unmarked) [Example 577] | 110 | < 300 |
| CN1CCC(OC(c2cccc(N=[N+]=[N-])c2)c2nc3ccccc3[nH]2)CC1 (centres unmarked) [Example 231, 2-[(3-azidophenyl)(1-methylpiperidin-4-yloxy)methyl]-1H-benzimidazole] | 53 | < 300 |
| Cc1cc(O)c(C(OC2CCN(C)CC2)c2nc3ccccc3[nH]2)cc1C (centres unmarked) [Example 611] | 139 | < 30 |
| Cc1cc(O)c(C(OC2CCN(C)CC2)c2nc3ccccc3[nH]2)c(F)c1 (centres unmarked) [Example 593] | 136 | < 30 |
| CN1CCC(OC(c2nc3ccccc3[nH]2)c2ccc3c(c2O)CCCC3)CC1 (centres unmarked) [Example 619] | 125 | < 300 |
| CN1CCC(OC(c2cccc(F)c2)c2nc3ccccc3[nH]2)CC1 (centres unmarked) [Example 155, 2-[(3-fluorophenyl)(1-methylpiperidin-4-yloxy)methyl]-1H-benzimidazole] | 93 | < 300 |
| CN1CCC(COC(c2cccc(Br)c2)c2nc3ccccc3[nH]2)C1 (centres unmarked) [Example 414, 2-[(3-bromo-phenyl)(1-methylpyrrolidin-3-ylmethoxy)methyl]-1H-benzimidazole] | 61 | < 300 |
| CN1CCC(OC(c2ccc3c(c2)OCCC3)c2nc3ccccc3[nH]2)CC1 (centres unmarked) [Example 543] | 128 | < 30 |
| CN1CCC(OC(c2nc3ccccc3[nH]2)c2cc(F)ccc2O)CC1 (centres unmarked) [Example 572] | 142 | < 30 |
| CN1CCC(NC(c2cccc(OCc3cccc(F)c3F)c2)c2nc3ccccc3[nH]2)CC1 (centres unmarked) [Example 162, {(1H-benzimidazol-2-yl)[3-(2,3-difluoro-benzyloxy)phenyl]methyl}(1-methylpiperidin-4-yl)amine] | 151 | < 30 |
| CN1CCC(OC(c2cccc(OCc3ccccn3)c2)c2nc3ccccc3[nH]2)CC1 (centres unmarked) [Example 310, 2-{(1-methylpiperidin-4-yloxy)[3-(pyridin-2-ylmethoxy)phenyl]methyl}-1H-benzimidazole] | 77 | < 300 |
| CN1CCC(OC(c2nc3ccccc3[nH]2)c2cc(Oc3ccccc3)ccc2O)CC1 (centres unmarked) [Example 609] | 140 | < 300 |
| CN1CCC(OC(c2cccc(-c3ccccc3F)c2)c2nc3ccccc3[nH]2)CC1 (centres unmarked) [Example 142, 2-[(2′-fluorobiphenyl-3-yl)(1-methylpiperidin-4-yloxy)methyl]-1H-benzimidazole] | 90 | < 300 |
| CN1CCC(OC(c2cccc(Br)c2)c2nc3cc(F)c(F)cc3[nH]2)CC1 (centres unmarked) [Example 469, 2-[(3-bromophenyl)(1-methylpiperidin-4-yloxy)methyl]-5,6-difluoro-1H-benzimidazole] | 70 | < 1000 |
| CN1CCC(OC(c2cccc(OCCCCCN3CCN(C(=O)OC(C)(C)C)CC3)c2)c2nc3ccccc3s2)CC1 (centres unmarked) [Example 362, 4-(5-{3-[benzothiazol-2-yl(1-methylpiperidin-4-yloxy)methyl]phenoxy}pentyl)piperazine-1-carboxylic acid tert-butyl ester] | 131 | < 1000 |
| CN1CCC(OC(c2nc3ccccc3[nH]2)c2cc(SCCF)ccc2O)CC1 (centres unmarked) [Example 614] | 127 | < 30 |
| CN1CCC(OC(c2ccccc2)c2nc3ccccc3s2)CC1 (centres unmarked) [Example 1, 2-[(1-methylpiperidin-4-yloxy)phenylmethyl]benzothiazole] | 115 | < 300 |
| CC(C)c1cccc(C(NC2CCN(C)CC2)c2nc3ccccc3[nH]2)c1 (centres unmarked) [Example 66, [(1H-benzimidazol-2-yl)(3-isopropylphenyl)methyl](1-methylpiperidin-4-yl)amine] | 82 | < 1000 |
| CN1CCC(OC(c2cccc(C#CCCCN)c2)c2nc3ccccc3[nH]2)CC1 (single isomer, unassigned) [Example 565, 5-{3-[(1H-benzimidazol-2-yl)(1-methylpiperidin-4-yloxy)methyl]phenyl}pent-4-ynylamine] | 84 | < 300 |
